The text below walks through data of ChEMBL document CHEMBL1140179, “Rhabdastrellins A-F, isomalabaricane triterpenes from the marine sponge Rhabdastrella aff. distincta” (J Nat Prod, 2008).

Molecules are shown by their SMILES. Values after ≈ are worked out from the molar mass of the structure shown.

The test system of the experiment is HL-60. The experiment can be described thus: Cytotoxicity against human HL60 cells. The format is functional, cell-based.

As for `CC(/C=C/C=C(C)/C=C/C(O)C(C)(C)O)=C1/C(=O)C[C@H]2[C@@]3(C)CC[C@H](O)[C@](C)(CO)[C@@H]3CC[C@]12C` (stereo partly specified) [RHABDASTRELLIN B], the IC50 was above 10 µg/mL.

`COC(=O)/C(C)=C/C=C/C(C)=C/C=C/C(C)=C1/C(=O)C[C@H]2[C@@]3(C)CC[C@H](O)C(C)(C)[C@@H]3CC[C@]12C` [RHABDASTRELLIN E]: the 50% inhibitory concentration (IC50) was above 10 µg/mL.

The compound `C\C(=C/C=C/C(C)=C1/C(=O)C[C@H]2[C@@]3(C)CC[C@H](O)[C@](C)(CO)[C@@H]3CC[C@]12C)c1ccc(C)c(=O)o1` [RHABDASTRELLIN A] gave a 50% inhibitory concentration (IC50) of 4.2 µg/mL (≈ 8.74 µM).

Compound `CC(/C=C/C(O)C(C)(C)O)=C\C=C\C(C)=C1\C(=O)C[C@H]2[C@@]3(C)CC[C@H](O)[C@](C)(CO)[C@@H]3CC[C@]12C` (stereo partly specified) [RHABDASTRELLIN C] showed a 50% inhibitory concentration (IC50) above 10 µg/mL.

The compound `COC(=O)/C(C)=C/C=C/C(C)=C/C=C/C(C)=C1\C(=O)C[C@H]2[C@@]3(C)CC[C@H](O)C(C)(C)[C@@H]3CC[C@]12C` [RHABDASTRELLIN F] showed an IC50 above 10 µg/mL.

As to `C/C(C(=O)/C=C/C(C)=C/C=C/C(C)(C)O)=C1/C(=O)C[C@H]2[C@@]3(C)CC[C@H](O)[C@](C)(CO)[C@@H]3CC[C@]12C` [RHABDASTRELLIN D], the IC50 is above 10 µg/mL.
